These results are taken from patent US9486472B2, “Methods for modulating neuronal responses” (UNIVERSITY OF BRITISH COLUMBIA CANADA, priority 2003, dated 2016).

No end group written: not given here.

The subject of one data set is AMPAR. Put plainly: Quantification of AMPAR endocytosis in response to NMDA treatment (cellular ELISA), cortical neurons. To be noted: 50 μM NMDA + 10 μM glycine 30 min; peptide 1 μM, 60 min pretreatment; control 69%. In kind it is cell-based, Wistar rat. Here is the method:
The cortex was dissected from 18 days in utero Wistar embryos and was treated with trypsin-EDTA for 15 min at 37° C. The cells were then washed 3 times and triturated to a single cell suspension. The neurons with glia were then seeded at a density of ˜2.5×10^5 neurons/well in 12 well tissue culture plates coated with poly-D lysine. The cells were then cultured for 24-48 h in plating media (Gibco Neurobasal™, 1% FBS, 2% B-27 supplement, 0.5 mM […], and 25 μM glutamic acid), after which the cells were treated with Neurobasal™ maintenance media (NMM: Gibco Neurobasal™ Media+0.5 mM […], 2% B-27 supplement) with 10 μM 5-Fluoro-2′-deoxyuridine (FDU) to enrich the culture for neurons (−85%). After 24 h-48 h culture in FDU, the cells were maintained on NMM changed every 4 days.
Using cellular ELISA, the amount of intracellular versus extracellular AMPAR expression was measured allowing quantification of AMPAR endocytosis in response to NMDA insult. DIV 12-13 neurons were washed once with room temperature ECS. […] The absorbance at 492 nm was read using a μQuant plate reader (Bio-Tek Instruments Inc.). The data were analyzed by first subtracting the absorbance values for the no-primary controls from the other samples. The percentage AMPAR surface expression was then expressed as a ratio of the non-permeabilized samples to the permeabilized samples. […]
For orientation: ELISA stands for enzyme-linked immunosorbent assay.

In data set [1] the test system is rats. The settings on record: IV 60 min prior to test session; versus saline. The method, then:
A. Rats maintained on a restricted feeding schedule were trained to lever-press for food pellets (45 mg) on a fixed-ratio 2 (FR2) schedule during 2-hour test sessions. Rats received IV injections of saline, GluR2-3A, or GluR2-3Y, in a counterbalanced order, 60 min prior to the test session. […] B. Rats were first trained to self-administer d-amphetamine (0.2 mg/infusion) via a jugular catheter on an FR2 schedule of reinforcement. Once responding in the 3 hour test sessions had stabilized, the rats were then trained on a Progressive Ratio Schedule in which successively more responses were required to obtain each successive reinforcement. […] Once stable Break point values were established, rats received IV injections of saline, GluR2-3A, or GluR2-3Y, in a counterbalanced order, 60 min prior to the test session.

The test system of data set [2] is rats. Put plainly: Behavioural sensitization to d-amphetamine (stereotypy scores). In kind it is in vivo, rat. The settings on record: one hour intravenous pre-treatment. The method, then: To induces behaviour sensitization to addictive drugs that lead to substance abuse, four separate groups of adult rats were given repetitive injections of damphetamine (2 mg/kg, intraperitoneally (IP)) or saline, every other day for a total of 10 injections. On days 1, 5 and 10 of the injection regimen, the rats were placed in 2-level locomotor boxes for 30 min before the amphetamine injection to habituate to the boxes, and for an additional 2 hours following the injection, and stereotypy scores (drug-induced behaviours) were assessed at 1 minute intervals every 10 minutes for the duration of the 2 hour session. After the 10th injection of d-amphetamine, the rats were given 21 days off, and chronically indwelling catheters were implanted into the jugular vein under anaesthesia.
On day 21, the rats were pretreated with 1.5 nM/grTat-GluR2-3Y, or Tat-GluR2-3A or saline by either IV injection, or intracranial microinjection into the nucleus accumbens (Nac), and returned to their home cages for 60 min. The rats were then placed in the locomotor boxes (observation chambers) for 30 min and then treated with a challenge dose of d-amphetamine (2 mg/kg, IP). Stereotypy scores were then assessed as described (FIG. 12A), Points represent mean stereotypy scores (±S.E.M) for groups of rats over the 2 hour test session. […]

The nature of data set [3]: Dose tolerance to serial doses, vital parameters monitored. In kind it is in vivo, Sprague-Dawley rats. The method, then: FIG. 15. Dose tolerance curve to serial doses of Tat-GluR2-3Y. Two adult male Sprague-Dawley rats were given serial doses of Tat-GluR2-3Y and the basic vital parameters were monitored.
In order to determine the maximum dose that could be administered without adverse reaction, two male Sprague Dawley rats were injected with serial doses of Tat-GluR2-3Y ranging from 0.5 nmoles/g to 30 nmoles/g and basic vital parameters were monitored. […] Assuming complete dispersion of the peptide in the animal, this dose corresponds roughly to a concentration of 3 μM.

The subject of a further data set is Sprague-Dawley rats. Put plainly: Transient focal ischemia model (MCA occlusion), TUNEL staining and neurological exam. In kind it is in vivo, rat. The settings on record: 10 min prior to MCA occlusion; 3 nmoles/g. Here is the method: The procedure was performed essentially as described previously (70). Briefly, adult male Sprague-Dawley rats between 280 and 320 g (20 h fasted weight) were anesthetized with an inhaled mixture of 4% isofluorane, in 30% oxygen balanced nitrous oxide, and maintained on 1.5% isofluorane. Bronchial secretions were minimized by administering 0.5 mg/kg of atropine intraperitoneally. […] The experimenter was blinded to the identity of the treatment groups for all surgeries and down-stream experiments. Under a dissection microscope, the common carotid artery (CCA), external carotid artery (ECA), and internal carotid artery (ICA) were exposed and dissected. […] Rectal temperature, and blood pressure measured with a tail cuff were measured before treatment, 15 min post injection, 50 min post injection, and 15 min post MCA occlusion. The plasma pH, O2, and CO2 were measured with a Rapidlab™ 348 blood gas analyzer (Bayer Diagnostics) in some animals to ensure that the gas flow rates used were appropriate and yielded reproducible blood gases. […]
At day 1 post MCAo rats were anesthetized with 1.5 mL of 25% urethane and were perfused with 100 mL of 0.9% saline followed by 120 mLs of 4% paraformaldehyde in PBS. […] The slices were scored for number of cells that stained positive for TMR-TUNEL per field of view at 10× magnification. […]

Turning to `CN[C@H](CC(=O)O)C(=O)O` [NMDA, N-methyl-D-aspartate], in the data set on AMPAR, the AMPAR surface expression came to 55%.
For the compound “YGRKKRRQRRRYKEGYNVYGIE [Tat-GluR2-3Y, YGRKKRRQRRR-YKEGYNVYGIE]”, in the data set with rats [1], the “Break Point measures for drug-reward” value is given as “no significant differences in the Break Point measures for drug-reward” and the “total number of responses for food reward” value is “no significant differences in total number of responses for food reward”. Moreover, the side effects result in the data set on rats [2] is listed as “without any notable side effects”. In addition, the “behaviour after revival from the dose response curve” value in data set [3] (both animals) was “showed no signs of mental depression or other behavioural changes”. In addition, in data set [3] (serial doses 0.5 to 30 nmoles/g, above: large decline in blood pressure, increase in breathing rate), the “dose up to which the drug was tolerated” value was about 12 nmol/g. Besides, the “doses evoking little response in the vital parameters monitored” value in data set [3] (serial doses, anesthetized rats) is listed as “up to 6 nmoles/g”. In addition, the “mean arterial blood pressure (MABP) versus saline” value in the data set on Sprague-Dawley rats is listed as “significantly lower mean arterial blood pressure”.
